Source: PubChem BioAssay AID2060908 (Molecular Pharmacology Branch, DTP, NCI, 2025)

Tested on: 186277-243-T-J2-PDC complex spheroids, viability
Assay: Anticancer human tumor 186277-243-T-J2-PDC patient-derived colon adenocarcinoma cell line growth inhibition [RAS]
Settings: for IC50: curve of first compound; for viability, T/C: stronger effect = lower value
Description: RAS pathway inhibitors in Combinations in Complex Spheroids
A high-throughput screen of multi-cell type tumor spheroids was designed to identify active combinations of RAS pathway inhibitors and targeted small molecules. Complex spheroids include a stromal component modeled by human endothelial cells (HUVEC) and fibroblasts modeled by human mesenchymal stem cells (MSCs). The concentration ranges selected for each drug and investigational agent were based upon clinically achievable concentrations if the clinical Cmax of the agent was known.
Compounds. The drugs and investigational agents: abemaciclib (NSC768073), cobimetinib (NSC768068), divarasib (GDC6063, NSC841802), docetaxel (NSC628503), GDC-1971 (RLY-1971, NSC841576), gemcitabine (NSC613327), inavolisib (NSC800729), ipatasertib (NSC767898), KB-0742 (NSC834161), MRTX-1133 (NSC836407), osimertinib (NSC779217), RMC-4630 (NSC839698), RMC-6236 (NSC851965), RMC-6291 (NSC852671), Ro-3306 (NSC812927), sapanisertib (NSC764658), SN-38 (NSC673596), staurosporine (NSC755774), SY5609 (NSC837396), and tovorafenib (DAY101, NSC766906), were obtained from the National Cancer Institute (NCI) Developmental Therapeutics Program Chemical Repository. The FDA-approved anticancer drug set is available from the NCI Developmental Therapeutics Program. […] The stock solutions were prepared in dimethyl sulfoxide (DMSO, Sigma-Aldrich, St. Louis, MO, cat. D2650) at 800-fold the tested concentration and stored at -70 degrees C prior to their use. All drugs and investigational agents were tested over a range starting from a high concentration at or near the clinical Cmax and decreasing in half-log increments. If the clinical Cmax for an agent had not been determined, the highest concentration tested was 10 microM.
Cell Culture. All cells were maintained in an incubator at 37 degrees C and 5% CO2 with 95% humidity. The PDC lines were cultured according to standard operating procedures established by the NCI PDMR. All PDCs were thawed and cultured in Matrigel-coated flasks prepared with a working solution of 1X Ham's F-12 nutrient mix, without supplementation (Invitrogen, Waltham, MA, cat. 11765054), 100 U/mL penicillin-streptomycin (Invitrogen, cat. 15140122), and 2.5% Matrigel (Corning Inc., Corning, NY, cat. 354248) for the first three passages. The 362531-283-R-J2-PDC and 782815-120-R-J1-PDC lines were cultured in 6C/Colon 1B media, which includes advanced DMEM/F-12 (Thermo Fisher Scientific, cat. 12634028), 10 mM HEPES (Thermo Fisher Scientific, cat. 15630080), 1X GlutaMAX supplement (Thermo Fisher Scientific, cat. 35050061), 0.1 mg/mL primocin (InvivoGen, San Diego, CA, cat. ant-pm-2), 10% defined fetal bovine serum, heat inactivated (HyClone Laboratories Inc., Logan, UT, cat. SH30070.03HI), 50% L-WRN conditioned media (ATCC, cat. CRL-3276), 1.25 mM N-Acetyl-L-cysteine (Sigma-Aldrich, cat. A9165), 10 mM nicotinamide (Sigma-Aldrich, cat. N0636), 1X B-27 supplement (Thermo Fisher Scientific, cat. 17504044), 1X N-2 supplement (Thermo Fisher Scientific, cat. 17502048), 50 ng/mL human EGF (Thermo Fisher Scientific, cat. PHG0311), and 10 microM Y-27632 dihydrochloride (Tocris Bioscience, cat. 1254). The K12877-001-R-J1-PDC line was cultured in 6I media, which includes all 6C/Colon 1B media plus 10 ng/mL human FGF-10 (PeproTech, cat. 100-26), 1 ng/mL human FGF-2 (PeproTech, cat. 100-18B), 1 µM prostaglandin E2 (Tocris Bioscience, cat. 2296), […] hydrocortisone (Sigma-Aldrich, cat. H4001), and […] bovine insulin (Sigma-Aldrich, cat. I6634). The K86415-001-R-J1-PDC line was cultured in 6D media, which includes all 6C/Colon 1B media components minus the L-WRN conditioned media. The 485176-168-R4-J1-PDC was cultured in PANC media, which includes all 6C/Colon 1B media plus 100 ng/mL human FGF-10 (PeproTech, cat. 100-26), 500 nM SB-431542 (Selleckchem, cat. S1067), and 10 nM gastrin (Tocris Bioscience, cat. 3006). […]
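Further: spheroids exposed to compounds for 7 days before viability read.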

Question: What does the source list for `Nc1ccn(C2OC(CO)C(O)C2(F)F)c(=O)n1` (centres undefined) + C#Cc1c(F)ccc2cc(O)cc(-c3ncc4c(N5CC6CCC(C5)N6)nc(OCC56CCCN5CC(F)C6)nc4c3F)c12?
Answer: IC50 (second compound 0.0316 µM): < 3.16 nM; IC50 (second compound 0.1 µM): < 3.16 nM; IC50 (second compound 0.316 µM): < 3.16 nM; IC50 (second compound 1 µM): < 3.16 nM; IC50 (second compound 3.16 µM): < 3.16 nM; IC50 (second compound 10 µM): < 3.16 nM; viability, T/C (second compound 0.0316 µM, first compound 0.00316 µM): 47%; viability, T/C (second compound 0.0316 µM, first compound 0.01 µM): 8.41%; viability, T/C (second compound 0.0316 µM, first compound 0.0316 µM): 7.36%; viability, T/C (second compound 0.0316 µM, first compound 0.1 µM): 8.79%; viability, T/C (second compound 0.0316 µM, first compound 0.316 µM): 6.46%; viability, T/C (second compound 0.0316 µM, first compound 1 µM): 8.3%; viability, T/C (second compound 0.1 µM, first compound 0.00316 µM): 28.4%; viability, T/C (second compound 0.1 µM, first compound 0.01 µM): 8.66%; viability, T/C (second compound 0.1 µM, first compound 0.0316 µM): 8.73%; viability, T/C (second compound 0.1 µM, first compound 0.1 µM): 6.07%; viability, T/C (second compound 0.1 µM, first compound 0.316 µM): 7.33%; viability, T/C (second compound 0.1 µM, first compound 1 µM): 7.04%; viability, T/C (second compound 0.316 µM, first compound 0.00316 µM): 14.2%; viability, T/C (second compound 0.316 µM, first compound 0.01 µM): 8.55%; viability, T/C (second compound 0.316 µM, first compound 0.0316 µM): 7.4%; viability, T/C (second compound 0.316 µM, first compound 0.1 µM): 7.69%; viability, T/C (second compound 0.316 µM, first compound 0.316 µM): 5.4%; viability, T/C (second compound 0.316 µM, first compound 1 µM): 7.34%; viability, T/C (second compound 1 µM, first compound 0.00316 µM): 9.92%; viability, T/C (second compound 1 µM, first compound 0.01 µM): 7.97%; viability, T/C (second compound 1 µM, first compound 0.0316 µM): 7.96%; viability, T/C (second compound 1 µM, first compound 0.1 µM): 6.96%; viability, T/C (second compound 1 µM, first compound 0.316 µM): 7.3%; viability, T/C (second compound 1 µM, first compound 1 µM): 5.65%; viability, T/C (second compound 3.16 µM, first compound 0.00316 µM): 7.24%; viability, T/C (second compound 3.16 µM, first compound 0.01 µM): 6.5%; viability, T/C (second compound 3.16 µM, first compound 0.0316 µM): 6.06%; viability, T/C (second compound 3.16 µM, first compound 0.1 µM): 5.7%; viability, T/C (second compound 3.16 µM, first compound 0.316 µM): 4.35%; viability, T/C (second compound 3.16 µM, first compound 1 µM): 5.91%; viability, T/C (second compound 10 µM, first compound 0.00316 µM): 8.28%; viability, T/C (second compound 10 µM, first compound 0.01 µM): 7.76%; viability, T/C (second compound 10 µM, first compound 0.0316 µM): 5.58%; viability, T/C (second compound 10 µM, first compound 0.1 µM): 5.8%; viability, T/C (second compound 10 µM, first compound 0.316 µM): 5.91%; viability, T/C (second compound 10 µM, first compound 1 µM): 6.36%

Question: With `CCc1c2c(nc3ccc(O)cc13)-c1cc3c(c(=O)n1C2)COC(=O)[C@]3(O)CC` + CCn1c(-c2cc(N3CCN(C)CC3)cnc2C(C)OC)c2c3cc(ccc31)-c1csc(n1)CC(NC(=O)C1CC1C)C(=O)N1CCCC(N1)C(=O)OCC(C)(C)C2 as the compound, how does the IC50 (second compound 0.000949 µM) read?
Answer: 5.27 nM

Question: What about the IC50 (second compound 0.003 µM) of the same compound?
Answer: 1.96 nM

Question: And the IC50 (second compound 0.00949 µM)?
Answer: < 0.949 nM

Question: What about the IC50 (second compound 0.03 µM) of the same compound?
Answer: < 0.949 nM

Question: And the IC50 (second compound 0.0949 µM)?
Answer: < 0.949 nM

Question: What about the IC50 (second compound 0.3 µM) of the same compound?
Answer: < 0.949 nM

Question: What about the viability, T/C (second compound 0.000949 µM, first compound 0.000949 µM) of the same compound?
Answer: 113%

Question: And the viability, T/C (second compound 0.000949 µM, first compound 0.003 µM)?
Answer: 58.7%

Question: And the viability, T/C (second compound 0.000949 µM, first compound 0.00949 µM)?
Answer: 39.5%

Question: And the viability, T/C (second compound 0.000949 µM, first compound 0.03 µM)?
Answer: 23.4%

Question: And the viability, T/C (second compound 0.000949 µM, first compound 0.0949 µM)?
Answer: 9.6%

Question: What about the viability, T/C (second compound 0.000949 µM, first compound 0.3 µM) of the same compound?
Answer: 6.83%

Question: What about the viability, T/C (second compound 0.003 µM, first compound 0.000949 µM) of the same compound?
Answer: 69.5%

Question: What about the viability, T/C (second compound 0.003 µM, first compound 0.003 µM) of the same compound?
Answer: 37.6%

Question: And the viability, T/C (second compound 0.003 µM, first compound 0.00949 µM)?
Answer: 22.2%

Question: And the viability, T/C (second compound 0.003 µM, first compound 0.03 µM)?
Answer: 13.2%

Question: What about the viability, T/C (second compound 0.003 µM, first compound 0.0949 µM) of the same compound?
Answer: 5.72%

Question: And the viability, T/C (second compound 0.003 µM, first compound 0.3 µM)?
Answer: 4.11%

Question: What about the viability, T/C (second compound 0.00949 µM, first compound 0.000949 µM) of the same compound?
Answer: 18.6%

Question: And the viability, T/C (second compound 0.00949 µM, first compound 0.003 µM)?
Answer: 10.9%

Question: And the viability, T/C (second compound 0.00949 µM, first compound 0.00949 µM)?
Answer: 9.28%

Question: And the viability, T/C (second compound 0.00949 µM, first compound 0.03 µM)?
Answer: 6.45%

Question: What about the viability, T/C (second compound 0.00949 µM, first compound 0.0949 µM) of the same compound?
Answer: 3.6%

Question: What about the viability, T/C (second compound 0.00949 µM, first compound 0.3 µM) of the same compound?
Answer: 2.17%

Question: What about the viability, T/C (second compound 0.03 µM, first compound 0.000949 µM) of the same compound?
Answer: 9.49%

Question: What about the viability, T/C (second compound 0.03 µM, first compound 0.003 µM) of the same compound?
Answer: 6.27%

Question: What about the viability, T/C (second compound 0.03 µM, first compound 0.00949 µM) of the same compound?
Answer: 5.72%

Question: What about the viability, T/C (second compound 0.03 µM, first compound 0.03 µM) of the same compound?
Answer: 4.05%

Question: What about the viability, T/C (second compound 0.03 µM, first compound 0.0949 µM) of the same compound?
Answer: 2.52%

Question: What about the viability, T/C (second compound 0.03 µM, first compound 0.3 µM) of the same compound?
Answer: 1.56%

Question: And the viability, T/C (second compound 0.0949 µM, first compound 0.000949 µM)?
Answer: 5.21%

Question: What about the viability, T/C (second compound 0.0949 µM, first compound 0.003 µM) of the same compound?
Answer: 4.44%

Question: What about the viability, T/C (second compound 0.0949 µM, first compound 0.00949 µM) of the same compound?
Answer: 4.37%

Question: What about the viability, T/C (second compound 0.0949 µM, first compound 0.03 µM) of the same compound?
Answer: 2.94%

Question: And the viability, T/C (second compound 0.0949 µM, first compound 0.0949 µM)?
Answer: 2.29%

Question: And the viability, T/C (second compound 0.0949 µM, first compound 0.3 µM)?
Answer: 1.3%

Question: And the viability, T/C (second compound 0.3 µM, first compound 0.000949 µM)?
Answer: 4.39%

Question: And the viability, T/C (second compound 0.3 µM, first compound 0.003 µM)?
Answer: 3.92%

Question: What about the viability, T/C (second compound 0.3 µM, first compound 0.00949 µM) of the same compound?
Answer: 3.85%

Question: And the viability, T/C (second compound 0.3 µM, first compound 0.03 µM)?
Answer: 2.91%

Question: What about the viability, T/C (second compound 0.3 µM, first compound 0.0949 µM) of the same compound?
Answer: 2.37%

Question: What about the viability, T/C (second compound 0.3 µM, first compound 0.3 µM) of the same compound?
Answer: 1.27%
